Data on 2 compounds can be found in patent US11938228B2, “Particle-based multi-layer therapeutic delivery device and method” (Privo Technologies, Inc., priority 2017, dated 2024).

Data set [1] is described as follows: release profile of encapsulated agent from chitosan particles (atomic absorption spectrometry). It counts as physicochemical. The conditions noted are these: over 60 hours; particles with average diameter 500 to 2000 nm; detection by AAS. The text has this: FIG. 1 is a graph showing the release profile of one embodiment of particles having an average diameter in the range of 500 to 2000 nm which may be included within a multi-layered device according to embodiments of the present invention. […] Cisplatin was used for this experiment due to its use in the treatment of oral cancer and its ease of detection via atomic absorption spectrometry (AAS).
FIG. 1 is a graph showing the release profile of example particles having an average diameter in the range of 500 to 2000 nm. […] Cisplatin was used for this experiment due to its use in the treatment of oral cancer and its ease of detection via atomic absorption spectrometry (AAS).

Data set [2] in a line: permeation of fluorescent dye from two-layer device into buccal tissue (fluorescence microscopy). In kind it is in vitro ADME. The conditions noted are these: lamb buccal tissue, multi-layer device. The text has this: FIG. 2 is an image of an example multi-layered device according to example embodiments of the present invention. The device features two layers: one top layer including fluorescein isothiocyanate (FITC), a fluorescent dye which fluoresces green when examined under a fluorescent microscope, and one bottom layer including cyanine 5 (Cy5), a fluorescent dye which fluoresces red when examined under a fluorescent microscope.
FIGS. 5A-5C show three images taken from lamb buccal tissue at different time points.
In another representative embodiment, a multi-layered device may be used for the delivery of multiple agents over a prolonged period of time (FIG. 4, FIG. 5). If the example of mucositis is again used, multiple layers may include a pain mitigator in free form, a pain mitigator encapsulated within particles and an agent for the treatment of mucositis encapsulated within particles. The initial freeform layer is able to provide immediate pain relief, and the subsequent particle-encapsulated layers are capable of delivering particles beneath the tissue, where they further release their agents over a period of days, providing longer-term pain relief and treatment. FIG. 4 and FIG. 5 illustrate this effect. Fluorescence was used in order to provide detection. […]

As for `N.N.[Cl][Pt][Cl]` [cisplatin], the “cisplatin released from particles” value in data set [1] came to 45%.

Turning to fluorescein isothiocyanate [FITC], the permeation into tissue entry in data set [2] (after 30 minutes) is listed as “beginning to permeate the tissue”; in data set [2] (after 1 hour), “permeating deeper into the tissue”.
